Assay results reported in ChEMBL document CHEMBL1201862, “PubChem BioAssay data set” (2004).
Active and inactive are the calls of the source.

Key:
[1] = target: T1, Insulin-degrading enzyme (Homo sapiens, UniProt P14735); assay: recombinant IDE activation, cell-free – biochemical, fluorescence polarization, counter-screen for IDE activator project, dose response (AID 588681)
T1 sequence (P14735 whole entry): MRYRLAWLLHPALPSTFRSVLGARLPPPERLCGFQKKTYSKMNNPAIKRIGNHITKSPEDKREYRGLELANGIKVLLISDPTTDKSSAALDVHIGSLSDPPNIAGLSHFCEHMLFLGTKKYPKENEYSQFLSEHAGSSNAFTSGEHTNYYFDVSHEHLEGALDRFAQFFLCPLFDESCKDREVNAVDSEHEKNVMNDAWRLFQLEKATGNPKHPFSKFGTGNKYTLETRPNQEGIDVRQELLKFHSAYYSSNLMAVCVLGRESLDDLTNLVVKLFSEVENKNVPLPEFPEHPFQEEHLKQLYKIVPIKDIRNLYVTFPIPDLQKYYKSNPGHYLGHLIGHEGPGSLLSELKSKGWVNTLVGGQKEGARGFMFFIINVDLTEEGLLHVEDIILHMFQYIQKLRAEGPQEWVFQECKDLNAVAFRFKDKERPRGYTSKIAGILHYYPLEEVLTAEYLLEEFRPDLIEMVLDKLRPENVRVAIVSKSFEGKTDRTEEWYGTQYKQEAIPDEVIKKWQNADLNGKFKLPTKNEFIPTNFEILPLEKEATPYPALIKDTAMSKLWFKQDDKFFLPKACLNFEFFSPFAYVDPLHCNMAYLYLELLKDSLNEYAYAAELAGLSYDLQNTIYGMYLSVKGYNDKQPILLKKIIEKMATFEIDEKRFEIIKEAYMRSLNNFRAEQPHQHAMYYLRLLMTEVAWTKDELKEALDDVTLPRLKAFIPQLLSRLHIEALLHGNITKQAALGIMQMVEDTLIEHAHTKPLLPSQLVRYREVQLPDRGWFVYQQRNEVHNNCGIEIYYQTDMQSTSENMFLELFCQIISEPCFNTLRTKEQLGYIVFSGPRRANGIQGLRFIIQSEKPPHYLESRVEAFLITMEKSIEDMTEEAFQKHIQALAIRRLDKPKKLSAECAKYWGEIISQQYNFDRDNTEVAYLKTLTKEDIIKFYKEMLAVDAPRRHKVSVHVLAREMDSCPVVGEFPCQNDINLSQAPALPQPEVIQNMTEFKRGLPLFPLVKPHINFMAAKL

[2] = target: T2, CAAX prenyl protease 2 (Homo sapiens, UniProt Q9Y256); assay: inhibition of Ras-converting CAAX protease Rce1 – biochemical, yeast membranes, quenched-peptide fluorescence, cherry-pick, dose response (AID 588849)
T2 sequence (Q9Y256 whole entry): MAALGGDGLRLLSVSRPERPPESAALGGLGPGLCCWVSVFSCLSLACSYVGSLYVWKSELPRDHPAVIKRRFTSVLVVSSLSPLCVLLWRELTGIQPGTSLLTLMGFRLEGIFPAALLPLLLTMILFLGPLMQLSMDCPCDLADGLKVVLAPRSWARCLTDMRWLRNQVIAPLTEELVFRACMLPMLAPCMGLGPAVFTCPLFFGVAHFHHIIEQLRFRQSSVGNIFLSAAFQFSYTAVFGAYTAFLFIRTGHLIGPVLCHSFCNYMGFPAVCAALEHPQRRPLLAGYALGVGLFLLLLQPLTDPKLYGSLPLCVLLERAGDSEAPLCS

[3] = target: CAAX prenyl protease 2 (Saccharomyces cerevisiae S288c, UniProt Q03530); type: biochemical
Chain of CAAX prenyl protease 2 (Saccharomyces cerevisiae S288c, UniProt Q03530) (Q03530 whole entry): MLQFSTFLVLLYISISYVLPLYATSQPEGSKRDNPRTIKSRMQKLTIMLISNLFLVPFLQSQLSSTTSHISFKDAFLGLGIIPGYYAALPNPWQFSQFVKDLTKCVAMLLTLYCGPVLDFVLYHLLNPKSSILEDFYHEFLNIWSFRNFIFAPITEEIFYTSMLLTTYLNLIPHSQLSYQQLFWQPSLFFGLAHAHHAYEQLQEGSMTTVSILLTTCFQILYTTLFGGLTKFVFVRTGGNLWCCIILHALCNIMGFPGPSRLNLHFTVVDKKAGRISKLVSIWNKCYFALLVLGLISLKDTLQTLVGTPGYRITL

[4] = target: Rho-associated protein kinase 2 (Homo sapiens, UniProt O75116); type: functional
Chain of Rho-associated protein kinase 2 (O75116 whole entry): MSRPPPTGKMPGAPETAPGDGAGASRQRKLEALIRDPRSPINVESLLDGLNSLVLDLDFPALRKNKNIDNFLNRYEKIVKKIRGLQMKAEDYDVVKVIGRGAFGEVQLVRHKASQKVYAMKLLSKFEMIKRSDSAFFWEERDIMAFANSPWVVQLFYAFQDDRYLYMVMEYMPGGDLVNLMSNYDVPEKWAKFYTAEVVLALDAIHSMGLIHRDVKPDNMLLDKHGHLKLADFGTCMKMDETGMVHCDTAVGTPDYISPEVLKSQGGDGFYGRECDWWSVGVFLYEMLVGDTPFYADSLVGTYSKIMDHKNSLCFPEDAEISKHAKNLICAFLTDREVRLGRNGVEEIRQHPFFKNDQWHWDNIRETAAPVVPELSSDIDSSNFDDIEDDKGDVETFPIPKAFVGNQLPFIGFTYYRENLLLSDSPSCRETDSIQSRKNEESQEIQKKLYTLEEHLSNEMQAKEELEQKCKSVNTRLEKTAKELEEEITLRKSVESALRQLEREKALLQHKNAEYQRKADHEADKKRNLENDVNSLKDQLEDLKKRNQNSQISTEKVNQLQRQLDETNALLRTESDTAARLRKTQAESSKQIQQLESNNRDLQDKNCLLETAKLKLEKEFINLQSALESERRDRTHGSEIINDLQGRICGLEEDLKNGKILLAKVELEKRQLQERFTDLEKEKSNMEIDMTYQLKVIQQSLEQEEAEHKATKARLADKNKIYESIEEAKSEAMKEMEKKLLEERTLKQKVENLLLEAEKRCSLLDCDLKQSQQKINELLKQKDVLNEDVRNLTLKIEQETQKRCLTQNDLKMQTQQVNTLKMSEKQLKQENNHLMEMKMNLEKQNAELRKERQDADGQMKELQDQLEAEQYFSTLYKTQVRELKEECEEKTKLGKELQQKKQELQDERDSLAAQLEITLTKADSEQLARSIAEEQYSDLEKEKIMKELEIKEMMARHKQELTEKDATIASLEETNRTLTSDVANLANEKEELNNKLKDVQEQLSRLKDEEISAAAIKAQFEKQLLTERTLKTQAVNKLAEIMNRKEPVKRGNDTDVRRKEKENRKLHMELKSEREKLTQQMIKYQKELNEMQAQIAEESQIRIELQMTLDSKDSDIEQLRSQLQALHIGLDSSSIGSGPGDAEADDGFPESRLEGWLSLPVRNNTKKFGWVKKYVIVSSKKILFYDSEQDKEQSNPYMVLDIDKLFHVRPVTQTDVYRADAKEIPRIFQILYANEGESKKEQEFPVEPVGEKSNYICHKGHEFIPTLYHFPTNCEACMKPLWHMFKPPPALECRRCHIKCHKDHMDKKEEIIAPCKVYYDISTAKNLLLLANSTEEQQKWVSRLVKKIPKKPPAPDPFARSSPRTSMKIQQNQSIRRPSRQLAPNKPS

[5] = target: Homeodomain-interacting protein kinase 2 (Homo sapiens, UniProt Q9H2X6); type: functional;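 note: measured within a kinome-wide kinase profiling panel, HIPK2 being one panel member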
Chain of Homeodomain-interacting protein kinase 2 (Q9H2X6 whole entry): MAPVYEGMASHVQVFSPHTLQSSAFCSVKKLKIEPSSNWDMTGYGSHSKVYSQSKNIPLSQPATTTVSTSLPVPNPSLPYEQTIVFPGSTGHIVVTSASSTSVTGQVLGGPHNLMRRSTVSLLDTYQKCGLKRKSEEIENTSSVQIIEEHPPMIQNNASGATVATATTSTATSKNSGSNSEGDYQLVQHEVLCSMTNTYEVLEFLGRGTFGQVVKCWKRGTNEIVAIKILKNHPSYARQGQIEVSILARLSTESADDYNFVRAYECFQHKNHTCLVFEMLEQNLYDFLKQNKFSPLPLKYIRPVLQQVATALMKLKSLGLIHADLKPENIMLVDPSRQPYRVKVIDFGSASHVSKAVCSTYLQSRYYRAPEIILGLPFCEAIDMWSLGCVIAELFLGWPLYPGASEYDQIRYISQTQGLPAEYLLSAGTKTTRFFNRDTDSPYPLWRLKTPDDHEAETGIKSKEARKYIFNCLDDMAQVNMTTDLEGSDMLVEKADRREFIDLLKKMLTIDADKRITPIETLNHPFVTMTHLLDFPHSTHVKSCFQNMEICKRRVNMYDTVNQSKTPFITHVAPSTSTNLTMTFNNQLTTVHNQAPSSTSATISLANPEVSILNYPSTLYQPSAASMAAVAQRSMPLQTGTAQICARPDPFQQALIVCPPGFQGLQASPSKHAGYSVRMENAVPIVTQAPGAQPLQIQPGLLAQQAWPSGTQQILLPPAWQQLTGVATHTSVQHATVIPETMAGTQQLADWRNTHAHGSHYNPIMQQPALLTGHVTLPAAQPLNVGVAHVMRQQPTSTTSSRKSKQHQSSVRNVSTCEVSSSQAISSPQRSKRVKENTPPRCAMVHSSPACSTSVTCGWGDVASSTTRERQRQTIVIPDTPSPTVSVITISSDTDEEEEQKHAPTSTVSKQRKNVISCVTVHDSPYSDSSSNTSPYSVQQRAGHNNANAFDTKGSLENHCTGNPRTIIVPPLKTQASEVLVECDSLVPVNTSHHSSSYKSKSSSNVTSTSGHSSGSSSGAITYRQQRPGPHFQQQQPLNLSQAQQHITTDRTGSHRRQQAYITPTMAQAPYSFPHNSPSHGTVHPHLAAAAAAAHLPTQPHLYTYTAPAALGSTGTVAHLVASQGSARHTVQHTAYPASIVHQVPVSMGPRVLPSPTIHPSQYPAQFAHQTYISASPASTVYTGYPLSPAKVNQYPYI

[6] = target: Maternal embryonic leucine zipper kinase (Homo sapiens, UniProt Q14680); type: functional
Chain of Maternal embryonic leucine zipper kinase (Q14680 whole entry): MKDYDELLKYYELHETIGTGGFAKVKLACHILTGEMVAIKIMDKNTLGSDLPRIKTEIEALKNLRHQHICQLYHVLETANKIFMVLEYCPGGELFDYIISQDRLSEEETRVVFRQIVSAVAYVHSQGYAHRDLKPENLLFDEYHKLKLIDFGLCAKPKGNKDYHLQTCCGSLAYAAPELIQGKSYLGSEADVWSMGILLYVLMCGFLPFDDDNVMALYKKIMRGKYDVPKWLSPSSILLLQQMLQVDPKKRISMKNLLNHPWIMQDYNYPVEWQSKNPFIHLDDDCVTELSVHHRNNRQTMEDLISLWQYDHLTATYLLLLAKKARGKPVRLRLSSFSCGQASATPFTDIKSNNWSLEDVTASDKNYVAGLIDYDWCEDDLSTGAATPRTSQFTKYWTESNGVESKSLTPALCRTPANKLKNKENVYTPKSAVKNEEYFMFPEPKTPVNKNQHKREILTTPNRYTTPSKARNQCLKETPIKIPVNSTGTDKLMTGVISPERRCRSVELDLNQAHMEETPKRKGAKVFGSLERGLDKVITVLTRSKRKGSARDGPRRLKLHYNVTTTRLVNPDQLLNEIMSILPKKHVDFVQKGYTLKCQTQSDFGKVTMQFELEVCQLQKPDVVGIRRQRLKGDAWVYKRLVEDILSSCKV

[7] = target: Cell division cycle 7-related protein kinase (Homo sapiens, UniProt O00311); type: functional;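 note: value obtained from a kinome-wide kinase panel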
Chain of Cell division cycle 7-related protein kinase (O00311 whole entry, canonical isoform): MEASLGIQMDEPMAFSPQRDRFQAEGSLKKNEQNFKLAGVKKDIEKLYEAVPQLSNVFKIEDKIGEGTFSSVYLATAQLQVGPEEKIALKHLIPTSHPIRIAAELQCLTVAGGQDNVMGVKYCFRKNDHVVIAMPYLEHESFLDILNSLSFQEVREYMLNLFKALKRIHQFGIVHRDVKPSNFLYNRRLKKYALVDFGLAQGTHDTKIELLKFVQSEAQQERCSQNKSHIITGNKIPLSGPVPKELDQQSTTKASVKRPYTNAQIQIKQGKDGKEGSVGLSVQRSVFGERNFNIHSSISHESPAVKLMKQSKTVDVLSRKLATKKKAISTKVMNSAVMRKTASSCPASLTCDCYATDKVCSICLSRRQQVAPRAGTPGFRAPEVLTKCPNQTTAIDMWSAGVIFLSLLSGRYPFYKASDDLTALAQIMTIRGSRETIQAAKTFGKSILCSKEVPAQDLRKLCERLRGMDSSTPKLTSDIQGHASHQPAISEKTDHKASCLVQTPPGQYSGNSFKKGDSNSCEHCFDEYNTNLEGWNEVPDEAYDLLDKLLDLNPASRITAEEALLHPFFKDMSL

[8] = target: Casein kinase I isoform alpha (Homo sapiens, UniProt P48729); type: functional
Chain of Casein kinase I isoform alpha (P48729 whole entry, canonical isoform): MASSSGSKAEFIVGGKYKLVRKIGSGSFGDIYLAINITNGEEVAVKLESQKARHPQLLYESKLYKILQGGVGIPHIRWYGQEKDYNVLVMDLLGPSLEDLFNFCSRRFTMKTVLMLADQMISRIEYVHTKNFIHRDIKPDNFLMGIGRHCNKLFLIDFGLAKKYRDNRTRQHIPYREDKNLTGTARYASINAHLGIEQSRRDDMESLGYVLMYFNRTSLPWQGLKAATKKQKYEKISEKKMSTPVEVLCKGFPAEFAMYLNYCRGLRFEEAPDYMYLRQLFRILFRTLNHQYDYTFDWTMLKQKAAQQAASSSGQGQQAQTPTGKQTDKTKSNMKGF

[9] = target: T3, Caspase-3 (Homo sapiens, UniProt P42574); type: functional;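 note: Dose-response selectivity test against caspase-3 for candidate inhibitors of sentrin-specific proteases (SENPs)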
T3 sequence (P42574 whole entry): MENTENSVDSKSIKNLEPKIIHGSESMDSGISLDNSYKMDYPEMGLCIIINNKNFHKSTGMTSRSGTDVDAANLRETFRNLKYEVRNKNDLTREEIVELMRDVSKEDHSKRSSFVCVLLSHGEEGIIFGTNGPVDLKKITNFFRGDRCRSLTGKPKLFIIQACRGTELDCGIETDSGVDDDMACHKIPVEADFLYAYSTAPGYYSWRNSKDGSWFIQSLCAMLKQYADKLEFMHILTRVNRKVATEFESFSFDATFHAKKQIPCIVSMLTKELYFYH

[10] = target: Serine/threonine-protein phosphatase PP1-alpha catalytic subunit (Homo sapiens, UniProt P62136); assay: inhibition of protein phosphatase 1 activity – biochemical, fluorescence, dose response (AID 2394)
[11] = target: Serine/threonine-protein phosphatase (Homo sapiens, UniProt Q9BPW0); assay: inhibition of protein phosphatase 5 activity – biochemical, fluorescence, dose response (AID 2395)
Chain of Serine/threonine-protein phosphatase (Q9BPW0 whole entry): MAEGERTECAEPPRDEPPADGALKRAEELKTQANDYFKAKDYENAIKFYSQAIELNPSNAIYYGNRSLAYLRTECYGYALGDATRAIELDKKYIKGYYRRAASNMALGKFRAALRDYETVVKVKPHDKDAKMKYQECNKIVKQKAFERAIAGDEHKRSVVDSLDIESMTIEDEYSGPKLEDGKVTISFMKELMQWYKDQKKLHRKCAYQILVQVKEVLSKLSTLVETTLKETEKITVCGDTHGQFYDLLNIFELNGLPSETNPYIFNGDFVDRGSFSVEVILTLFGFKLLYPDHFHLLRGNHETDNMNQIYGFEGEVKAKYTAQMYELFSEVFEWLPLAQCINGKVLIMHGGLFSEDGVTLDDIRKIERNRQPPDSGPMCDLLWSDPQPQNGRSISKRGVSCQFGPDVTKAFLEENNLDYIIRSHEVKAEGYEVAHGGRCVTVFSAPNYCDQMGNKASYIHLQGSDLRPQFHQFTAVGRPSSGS

[12] = target: T4, Tyrosyl-DNA phosphodiesterase 2 (Homo sapiens, UniProt O95551); assay: potency against TDP2 phosphodiesterase activity – biochemical, epi absorbance, IC50, dose response (AID 743297)
T4 sequence (O95551 whole entry): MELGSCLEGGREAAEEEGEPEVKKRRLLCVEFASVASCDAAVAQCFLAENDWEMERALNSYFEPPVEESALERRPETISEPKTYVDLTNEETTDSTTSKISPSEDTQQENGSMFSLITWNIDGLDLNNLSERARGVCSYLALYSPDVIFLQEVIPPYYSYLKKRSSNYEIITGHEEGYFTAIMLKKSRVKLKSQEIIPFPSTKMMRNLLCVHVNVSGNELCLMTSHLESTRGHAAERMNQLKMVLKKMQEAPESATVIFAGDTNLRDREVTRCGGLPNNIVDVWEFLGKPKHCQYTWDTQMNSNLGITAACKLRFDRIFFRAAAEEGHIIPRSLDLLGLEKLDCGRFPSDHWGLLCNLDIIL

In the case of `OC(CNCCC1C=Nc2ccccc21)Cn1c2ccc(Cl)cc2c2cc(Cl)ccc21` (stereo unspecified), the EC50 [1] is reported as > 54.7 µM (inactive), the AC50 [2] is reported as 79.3 µM (active) and the AC50 [3] is reported as 8.21 µM (active).
In the case of `NC1CCC(Nc2nc(Cl)cc(-c3c[nH]c4ncccc34)n2)CC1` (stereo unspecified), the Ki [4] is reported as 0.002 µM (active), the pKi [4] is reported as 8.7 and the Ki [5] is reported as 0.0398 µM (active). For the same molecule, the pKi [5] was 7.4, the Ki [6] was 0.00316 µM (active) and the pKi [6] was 8.5. For the same molecule, the Ki [7] was 0.000316 µM (active) and the pKi [7] was 9.5.
With `O=C(O)C1CN(Cc2ccc(OCc3ccccc3)cc2Cl)C1` the Ki [8] was > 3.98 µM (inactive).
With `COc1ccc(C(=O)c2nccc3cc(OC)c(OC)cc23)cc1OC` the IC50 [9] was 8.21 µM (active), the IC50 [10] was > 67 µM (not active) and the IC50 [11] was 19.6 µM (not active).
For `Cc1ccccc1-c1cc2c(nn1)-c1ccccc1C2=O`, the IC50 [12] was 32 µM (inactive).
